Reference: patent publication US6737383B1, “Herbicidal oxadiazolidines” (priority 1999, dated 2004)

What was measured:
crabgrass = assay: Test B pre/postemergence crabgrass; assay type: in vivo, Digitaria sanguinalis
Method in brief: (§1)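 Response is a visual 0-to-10 score relative to untreated plants, where 0 means no effect and 10 means complete control, taken twelve to sixteen days after application. Treatments went onto soil at planting and onto foliage of 1- to 4-leaf plants, using a surfactant-containing non-phytotoxic solvent.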

giant foxtail = assay: Test B pre/postemergence giant foxtail; assay type: in vivo, Setaria faberii
Method in brief: as §1

soybean = assay: Test B pre/postemergence soybean; assay type: in vivo, Glycine max
Method in brief: as §1

sugar beet = assay: Test B pre/postemergence sugar beet; assay type: in vivo, Beta vulgaris
Method in brief: as §1

[1] = Postemergence, Rate 62 g/ha, scale 0 to 10, 0 is no effect, 10 is complete control
[2] = Postemergence, Rate 250 g/ha, scale 0 to 10, 0 no effect, 10 complete control
[3] = Preemergence, Rate 62 g/ha, scale 0 to 10 (0 no effect, 10 complete control)
[4] = Preemergence, Rate 125 g/ha, scale 0 to 10 (0 no effect, 10 complete control)
[5] = Preemergence, Rate 250 g/ha, scale of 0 to 10 where 0 is no effect and 10 is complete control
[6] = Preemergence, Rate 500 g/ha, scale 0 (no effect) to 10 (complete control)
[7] = Rate 125 g/ha, Postemergence, scale 0 to 10, 0 no effect, 10 complete control
[8] = Rate 500 g/ha, Postemergence, scale 0 to 10, 0 no effect, 10 complete control
[9] = Postemergence, Rate 125 g/ha, scale of 0 to 10 where 0 is no effect and 10 is complete control
[10] = Preemergence, Rate 500 g/ha, scale 0 to 10 (0 no effect, 10 complete control)
[11] = Rate 62 g/ha, Postemergence, scale of 0 to 10 where 0 is no effect and 10 is complete control
[12] = Rate 250 g/ha, Postemergence, scale 0 to 10, 0 is no effect, 10 is complete control

SMILES	Crabgrass plant response rating (crabgrass; [1])	Crabgrass plant response rating (crabgrass; [2])	Crabgrass plant response rating (crabgrass; [3])	Plant response rating, Crabgrass (crabgrass; [4])	Plant response rating, Crabgrass (crabgrass; [5])	Crabgrass plant response rating (crabgrass; [6])	Crabgrass plant response rating (crabgrass; [7])	Crabgrass plant response rating (crabgrass; [8])	Giant foxtail plant response rating (giant foxtail; [2])	Giant foxtail plant response rating (giant foxtail; [3])	Plant response rating, Giant foxtail (giant foxtail; [4])	Plant response rating, Giant foxtail (giant foxtail; [5])	Giant foxtail plant response rating (giant foxtail; [8])	Soybean plant response rating (soybean; [3])	Plant response rating, Soybean (soybean; [4])	Plant response rating, Soybean (soybean; [5])	Soybean plant response rating (soybean; [8])	Sugarbeets plant response rating (sugar beet; [3])	Plant response rating, Sugarbeets (sugar beet; [5])	Sugarbeets plant response rating (sugar beet; [8])	other results
Cc1nn(C)c(C)c1-n1c(=O)on(C(=O)N(c2ccc(F)cc2F)C(C)C)c1=O [Compound 76]	2	8	3	4	8	8	4	9	7	4	9	9	9	0	0	0	2	0	0	3	Giant foxtail plant response rating (giant foxtail; [1]): 3; Giant foxtail plant response rating (giant foxtail; [6]): 9; Giant foxtail plant response rating (giant foxtail; [7]): 4; Soybean plant response rating (soybean; [1]): 0; Soybean plant response rating (soybean; [2]): 2; Soybean plant response rating (soybean; [6]): 0; Soybean plant response rating (soybean; [7]): 1; Sugarbeets plant response rating (sugar beet; [1]): 0; Sugarbeets plant response rating (sugar beet; [2]): 2; Plant response rating, Sugarbeets (sugar beet; [4]): 0; Sugarbeets plant response rating (sugar beet; [6]): 0; Sugarbeets plant response rating (sugar beet; [7]): 0
CN(C(=O)n1oc(=O)n(Cc2cccs2)c1=O)c1ccccc1 [Compound 83]	0	0	0	0	0	0	0	0	0	0	0	0	0	0	0	0	0	0	0	0	Giant foxtail plant response rating (giant foxtail; [1]): 0; Giant foxtail plant response rating (giant foxtail; [6]): 0; Giant foxtail plant response rating (giant foxtail; [7]): 0; Soybean plant response rating (soybean; [1]): 0; Soybean plant response rating (soybean; [2]): 0; Soybean plant response rating (soybean; [6]): 0; Soybean plant response rating (soybean; [7]): 0; Sugarbeets plant response rating (sugar beet; [1]): 0; Sugarbeets plant response rating (sugar beet; [2]): 0; Plant response rating, Sugarbeets (sugar beet; [4]): 0; Sugarbeets plant response rating (sugar beet; [6]): 0; Sugarbeets plant response rating (sugar beet; [7]): 0
Cc1ccccc1Cn1c(=O)on(C(=O)N(C)c2ccccc2)c1=O [Compound 85]	0	0	0	0	0	0	0	0	0	0	0	0	0	0	0	0	0	0	0	0	Giant foxtail plant response rating (giant foxtail; [1]): 0; Giant foxtail plant response rating (giant foxtail; [6]): 0; Giant foxtail plant response rating (giant foxtail; [7]): 0; Soybean plant response rating (soybean; [1]): 0; Soybean plant response rating (soybean; [2]): 0; Soybean plant response rating (soybean; [6]): 0; Soybean plant response rating (soybean; [7]): 0; Sugarbeets plant response rating (sugar beet; [1]): 0; Sugarbeets plant response rating (sugar beet; [2]): 0; Plant response rating, Sugarbeets (sugar beet; [4]): 0; Sugarbeets plant response rating (sugar beet; [6]): 0; Sugarbeets plant response rating (sugar beet; [7]): 0
CC(C)N(C(=O)n1oc(=O)n(Cc2ccccc2)c1=O)c1ccc(Cl)cc1 [Compound 106]	–	3	0	0	8	–	–	6	3	2	5	10	3	0	0	0	1	0	0	0	Crabgrass plant response rating (crabgrass; [9]): 0; Crabgrass plant response rating (crabgrass; [10]): 8; Crabgrass plant response rating (crabgrass; [11]): 0; Giant foxtail plant response rating (giant foxtail; [9]): 2; Giant foxtail plant response rating (giant foxtail; [10]): 10; Giant foxtail plant response rating (giant foxtail; [11]): 0; Soybean plant response rating (soybean; [9]): 0; Soybean plant response rating (soybean; [10]): 0; Soybean plant response rating (soybean; [11]): 0; Plant response rating, Soybean (soybean; [12]): 1; Sugarbeets plant response rating (sugar beet; [9]): 0; Sugarbeets plant response rating (0 to 10 scale) (sugar beet; Preemergence, Rate 125 g/ha, 0 is no effect, 10 is complete control): 0; Sugarbeets plant response rating (sugar beet; [10]): 2; Sugarbeets plant response rating (sugar beet; [11]): 0; Plant response rating, Sugarbeets (sugar beet; [12]): 0
